The source of these data is PMC4457528, “Identification of Novel Small Molecule Inhibitors of Oncogenic RET Kinase” (PLoS ONE, 2015).

Structures are written as SMILES. Where two headings read alike, the source gives them in different places. Where only a bound is given, the exact number is not on record here.

Holding throughout (test): KinomeScan kinase panel, single concentration 10 µM
Assay type in all cases: binding

Assay [1] has as its target T1, KinomeScan kinase panel (Homo sapiens, UniProt Q16566).
T1 construct: purchased DiscoveRx (KinomeScan)
T1 sequence (Q16566 1-473): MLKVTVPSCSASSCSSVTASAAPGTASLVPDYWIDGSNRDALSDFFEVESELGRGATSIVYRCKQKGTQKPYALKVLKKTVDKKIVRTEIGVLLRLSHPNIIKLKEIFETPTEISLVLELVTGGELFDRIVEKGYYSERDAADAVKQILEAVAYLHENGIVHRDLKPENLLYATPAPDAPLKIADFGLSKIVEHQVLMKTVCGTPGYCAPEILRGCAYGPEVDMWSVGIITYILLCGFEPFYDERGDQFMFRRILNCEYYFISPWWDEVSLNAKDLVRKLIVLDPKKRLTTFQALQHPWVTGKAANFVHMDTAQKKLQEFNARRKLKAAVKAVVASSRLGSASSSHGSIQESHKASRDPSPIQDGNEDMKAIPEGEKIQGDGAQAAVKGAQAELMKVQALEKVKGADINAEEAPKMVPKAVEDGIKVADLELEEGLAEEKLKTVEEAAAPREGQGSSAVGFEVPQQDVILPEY
The note with it: CAMK4, 10 µM; read-out: score (%).

Assay [2] deals with T2, KinomeScan kinase panel (Homo sapiens, UniProt Q5VT25).
T2 construct: purchased DiscoveRx (KinomeScan)
T2 sequence (Q5VT25 whole entry): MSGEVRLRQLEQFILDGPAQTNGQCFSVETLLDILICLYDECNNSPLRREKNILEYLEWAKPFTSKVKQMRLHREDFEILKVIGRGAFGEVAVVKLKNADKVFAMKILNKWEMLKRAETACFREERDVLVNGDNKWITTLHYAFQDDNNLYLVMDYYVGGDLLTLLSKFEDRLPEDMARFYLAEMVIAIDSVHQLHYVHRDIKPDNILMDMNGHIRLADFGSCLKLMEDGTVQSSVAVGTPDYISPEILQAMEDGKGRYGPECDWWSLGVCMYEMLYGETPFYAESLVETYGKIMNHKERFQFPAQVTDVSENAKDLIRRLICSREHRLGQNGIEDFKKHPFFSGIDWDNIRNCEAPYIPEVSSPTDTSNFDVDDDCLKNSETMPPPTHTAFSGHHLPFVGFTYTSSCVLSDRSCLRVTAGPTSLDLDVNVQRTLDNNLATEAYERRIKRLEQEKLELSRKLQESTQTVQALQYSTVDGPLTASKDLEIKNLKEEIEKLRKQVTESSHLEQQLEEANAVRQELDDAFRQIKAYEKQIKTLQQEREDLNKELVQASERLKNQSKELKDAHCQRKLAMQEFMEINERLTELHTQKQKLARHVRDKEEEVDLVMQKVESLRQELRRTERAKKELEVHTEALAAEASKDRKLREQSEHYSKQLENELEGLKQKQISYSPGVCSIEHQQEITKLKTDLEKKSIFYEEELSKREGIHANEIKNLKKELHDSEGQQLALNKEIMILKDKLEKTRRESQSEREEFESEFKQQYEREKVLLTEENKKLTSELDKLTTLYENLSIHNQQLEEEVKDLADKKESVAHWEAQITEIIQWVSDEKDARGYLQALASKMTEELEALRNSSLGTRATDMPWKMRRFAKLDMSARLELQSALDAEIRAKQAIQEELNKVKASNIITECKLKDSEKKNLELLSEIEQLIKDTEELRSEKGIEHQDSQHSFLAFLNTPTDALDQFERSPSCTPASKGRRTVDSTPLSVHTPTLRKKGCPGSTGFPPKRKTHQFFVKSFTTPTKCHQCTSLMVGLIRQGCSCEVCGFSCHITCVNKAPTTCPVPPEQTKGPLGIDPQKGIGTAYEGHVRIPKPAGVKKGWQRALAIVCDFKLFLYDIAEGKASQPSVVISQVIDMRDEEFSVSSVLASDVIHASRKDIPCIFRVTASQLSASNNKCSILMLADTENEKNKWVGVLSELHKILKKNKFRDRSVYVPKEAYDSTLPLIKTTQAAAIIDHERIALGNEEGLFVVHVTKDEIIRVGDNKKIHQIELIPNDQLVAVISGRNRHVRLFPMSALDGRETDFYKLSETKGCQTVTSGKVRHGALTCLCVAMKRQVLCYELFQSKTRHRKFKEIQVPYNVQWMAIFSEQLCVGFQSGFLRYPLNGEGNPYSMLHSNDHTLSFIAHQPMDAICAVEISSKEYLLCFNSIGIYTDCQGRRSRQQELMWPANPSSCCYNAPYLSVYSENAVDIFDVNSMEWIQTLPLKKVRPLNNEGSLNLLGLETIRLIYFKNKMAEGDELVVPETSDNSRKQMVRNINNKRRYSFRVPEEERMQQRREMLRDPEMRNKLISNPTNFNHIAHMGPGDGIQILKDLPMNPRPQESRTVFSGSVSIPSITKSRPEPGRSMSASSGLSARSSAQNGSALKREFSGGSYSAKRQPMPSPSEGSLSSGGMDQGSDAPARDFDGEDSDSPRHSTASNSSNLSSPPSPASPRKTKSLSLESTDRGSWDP
The note with it: MRCKA, 10 µM; read-out: score (%).

The target of assay [3] is T3, KinomeScan kinase panel (Homo sapiens, UniProt P29320).
T3 construct: purchased DiscoveRx (KinomeScan)
T3 sequence (P29320 21-983): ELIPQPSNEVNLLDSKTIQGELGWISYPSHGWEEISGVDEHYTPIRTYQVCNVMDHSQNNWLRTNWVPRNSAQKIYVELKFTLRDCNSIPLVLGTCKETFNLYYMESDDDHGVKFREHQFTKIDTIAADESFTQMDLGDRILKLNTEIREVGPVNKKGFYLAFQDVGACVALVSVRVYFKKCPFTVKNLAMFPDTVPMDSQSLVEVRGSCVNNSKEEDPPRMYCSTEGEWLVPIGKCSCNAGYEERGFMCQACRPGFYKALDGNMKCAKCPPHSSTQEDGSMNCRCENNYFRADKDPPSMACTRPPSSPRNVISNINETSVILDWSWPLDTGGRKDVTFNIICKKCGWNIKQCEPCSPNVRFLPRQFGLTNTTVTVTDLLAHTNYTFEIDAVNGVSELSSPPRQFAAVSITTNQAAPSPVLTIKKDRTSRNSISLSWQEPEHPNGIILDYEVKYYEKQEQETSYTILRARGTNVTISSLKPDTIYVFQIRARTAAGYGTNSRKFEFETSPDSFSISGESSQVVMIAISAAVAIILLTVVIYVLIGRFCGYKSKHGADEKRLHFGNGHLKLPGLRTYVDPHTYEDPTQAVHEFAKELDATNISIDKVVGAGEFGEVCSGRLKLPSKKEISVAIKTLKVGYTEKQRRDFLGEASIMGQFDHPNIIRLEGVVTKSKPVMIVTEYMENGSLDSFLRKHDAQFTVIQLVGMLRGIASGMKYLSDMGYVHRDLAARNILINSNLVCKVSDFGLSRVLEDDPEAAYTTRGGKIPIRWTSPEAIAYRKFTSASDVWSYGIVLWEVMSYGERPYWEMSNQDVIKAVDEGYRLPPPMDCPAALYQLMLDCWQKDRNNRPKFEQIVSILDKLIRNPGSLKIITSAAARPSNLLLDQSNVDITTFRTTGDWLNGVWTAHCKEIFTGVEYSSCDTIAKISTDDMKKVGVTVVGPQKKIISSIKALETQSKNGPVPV
The note with it: EPHA3, 10 µM; read-out: score (%).

For assay [4], the target named is T4, KinomeScan kinase panel (Homo sapiens, UniProt P29317).
T4 construct: purchased DiscoveRx (KinomeScan)
T4 sequence (P29317 24-976): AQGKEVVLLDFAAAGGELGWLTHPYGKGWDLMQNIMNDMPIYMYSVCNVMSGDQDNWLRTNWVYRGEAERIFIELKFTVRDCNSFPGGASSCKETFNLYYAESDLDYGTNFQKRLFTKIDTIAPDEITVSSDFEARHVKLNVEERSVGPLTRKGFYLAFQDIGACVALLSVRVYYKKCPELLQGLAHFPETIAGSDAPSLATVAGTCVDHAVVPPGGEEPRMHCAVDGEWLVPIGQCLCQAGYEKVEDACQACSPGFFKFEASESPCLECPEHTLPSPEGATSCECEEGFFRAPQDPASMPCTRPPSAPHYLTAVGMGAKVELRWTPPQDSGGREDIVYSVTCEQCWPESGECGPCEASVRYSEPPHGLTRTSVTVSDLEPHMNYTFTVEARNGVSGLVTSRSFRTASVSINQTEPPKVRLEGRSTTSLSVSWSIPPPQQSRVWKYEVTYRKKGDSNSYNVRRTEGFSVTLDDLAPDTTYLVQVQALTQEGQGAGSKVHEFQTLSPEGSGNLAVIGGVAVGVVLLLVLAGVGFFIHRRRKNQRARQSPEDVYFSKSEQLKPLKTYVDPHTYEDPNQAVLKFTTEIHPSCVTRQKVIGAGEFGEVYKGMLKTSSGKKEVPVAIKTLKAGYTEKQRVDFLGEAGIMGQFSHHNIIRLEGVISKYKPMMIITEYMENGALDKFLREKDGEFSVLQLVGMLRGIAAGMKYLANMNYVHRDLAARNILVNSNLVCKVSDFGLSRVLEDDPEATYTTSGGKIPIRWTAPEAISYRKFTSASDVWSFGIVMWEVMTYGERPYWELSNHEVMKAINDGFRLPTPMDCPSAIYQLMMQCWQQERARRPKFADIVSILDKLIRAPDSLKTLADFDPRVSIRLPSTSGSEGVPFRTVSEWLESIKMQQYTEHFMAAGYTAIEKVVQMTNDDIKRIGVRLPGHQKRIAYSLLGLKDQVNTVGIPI
The note with it: EPHA2, 10 µM; read-out: score (%).

Assay [5] concerns the target T5, KinomeScan kinase panel (Homo sapiens, UniProt P00519, Q252H).
T5 construct: purchased DiscoveRx (KinomeScan)
As to conditions: 10 µM, read-out: score (%).

The target of assay [6] is T6, KinomeScan kinase panel (Homo sapiens, UniProt O14757).
T6 construct: purchased DiscoveRx (KinomeScan)
T6 sequence (O14757 1-476): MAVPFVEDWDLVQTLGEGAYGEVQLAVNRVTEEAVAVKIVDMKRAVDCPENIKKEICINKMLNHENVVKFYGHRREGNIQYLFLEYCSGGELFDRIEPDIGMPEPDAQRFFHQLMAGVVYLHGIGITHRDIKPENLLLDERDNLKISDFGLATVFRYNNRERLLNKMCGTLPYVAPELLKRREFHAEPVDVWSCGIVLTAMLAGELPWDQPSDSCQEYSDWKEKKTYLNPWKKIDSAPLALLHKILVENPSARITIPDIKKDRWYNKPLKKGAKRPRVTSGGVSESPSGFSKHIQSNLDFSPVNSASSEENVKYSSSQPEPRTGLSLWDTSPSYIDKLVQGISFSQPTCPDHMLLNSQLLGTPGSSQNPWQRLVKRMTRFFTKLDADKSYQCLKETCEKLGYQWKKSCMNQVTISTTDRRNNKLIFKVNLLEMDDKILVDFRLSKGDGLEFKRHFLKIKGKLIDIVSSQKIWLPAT
The note with it: CHEK1, 10 µM.

In the case of `CCN1CCN(Cc2ccc(NC(=O)c3ccc(C)c(NC(=O)c4cncc(-c5cccs5)c4)c3)cc2C(F)(F)F)CC1` [ALW-II-41-27], the remaining binding at 10 µM at KinomeScan kinase panel [1] was greater than 30%; on KinomeScan kinase panel [2] it was greater than 30%; at KinomeScan kinase panel [3], 7.6%; on KinomeScan kinase panel [4], 0.15%; on KinomeScan kinase panel [5] (ABL1(Q252H)), 0.25%. For the same compound, the “score (%)” value at KinomeScan kinase panel [6] is on record as “nb (Hits values higher than 30% were considered negative (no binding: nb))”.

As for `CCN1CCN(Cc2ccc(NC(=O)c3ccc(C)c(/C=C/c4cnc5[nH]ccc5c4Cl)c3)cc2C(F)(F)F)CC1` [HG-6-63-01, (E)-3-(2-(4-chloro-1H-pyrrolo[2,3-b]pyridin-5-yl)vinyl)-N-(4-((4-ethylpiperazin-1-yl)methyl)-3-(trifluoromethyl)phenyl)-4-methylbenzamide], the remaining binding at 10 µM on KinomeScan kinase panel [1] is greater than 30%; on KinomeScan kinase panel [2], 12%; on KinomeScan kinase panel [3] it was 11%; on KinomeScan kinase panel [4] it was 0.25%; at KinomeScan kinase panel [5] (ABL1(Q252H)), 0.1%. The “score (%)” value on KinomeScan kinase panel [6] is 25%.

`CCN1CCN(Cc2ccc(NC(=O)c3ccc(C)c(C#Cc4cccnc4)c3)cc2C(F)(F)F)CC1` [XMD15-44]: the remaining binding at 10 µM on KinomeScan kinase panel [1] is greater than 30%; on KinomeScan kinase panel [2] it was greater than 30%; at KinomeScan kinase panel [3], 0.85%; on KinomeScan kinase panel [4], 0.4%; at KinomeScan kinase panel [5] (ABL1(Q252H)-nonphosphorylated), 6.4%; on KinomeScan kinase panel [5] (ABL1(Q252H)-phosphorylated), 0.7%. At KinomeScan kinase panel [6], the “score (%)” value is “nb (Hits values higher than 30% were considered negative (no binding: nb))”.
